# Patent US20080206198A1, “Compounds and methods for pharmico-gene therapy of epithelial sodium channel associated disorders” (priority 2003, published 2008)
# Peptide text beside a SMILES is read from it. * marks the point of attachment. Cbz = O=C(OCc1ccccc1)*
# Legend:
# mouse lung = assay: AV2.RSVlucCap5 nasal aspiration in mice with Z-LLL and/or doxorubicin; type: in vivo; details: 200 μM
# Description: To determine in vivo transduction efficiency of AV2.RSVlucCap5, mice were infected with 6×10^10 particles of AV2.RSVlucCap5 by nasal aspiration alone (control) or in combination with 200 μM Z-LLL, 200 μM doxorubicin or 200 μM Z-LLL and 200 μM doxorubicin (12 mice per group). Co-administration of Z-LLL induced whole lung luciferase expression 17.2- and 2.1-fold at 14 (2 weeks) and 42 (6 weeks) days post-infection, respectively.
# ENaC = assay: Amiloride-sensitive short-circuit current in polarized CF airway epithelia; type: cell-based, human; details: data not shown
# Description: Short-circuit current (Isc) measurement in polarized airway epithelia. Transepithelial short-circuit currents were measured using an epithelial voltage clamp and a self-contained Using chamber as described in Zabner et al. (1998). The basolateral side of the chamber was filled with Ringer's buffer solution containing 135 mM NaCl, 1.2 mM CaCl2, 2.4 mM KH2PO4, 0.2 mM K2HPO4, 1.2 mM MgCl2, and 5 mM HEPES, pH 7.4. The apical side of the chamber was filled with a low-chloride Ringer's containing 135 mM sodium gluconate, 1.2 mM CaCl2, 2.4 mM KH2PO4, 0.2 mM K2HPO4, 1.2 mM MgCl2, and 5 mM HEPES, pH 7.4. During the experiment, the chamber was maintained at 37° C. and aerated with 100% O2. Transepithelial voltage was clamped at zero, and the resulting Isc was measured and recorded following the sequential addition of the following channel antagonist and agonists: 1) 100 μM amiloride (apical), 2) 100 μM 4,4′-diisothiocyna-2,2′-disulfonic stilbene (DIDS) (apical), 3) 100 μM IBMX/10 μM forskolin (apical), 4) 100 μM bumetanide (basolateral). Voltage was referenced to the apical compartment. The series resistance of the Ringer's solution and transwell membrane was electrically compensated before starting experiments. All chemical agonists and antagonists were added to either the apical or the basolateral sides of the monolayer by direct injection and mixed by aerating the Ringer's solution. […]
# [1] = system: polarized bronchial epithelia cells; assay: S^35-labeled rAAV binding/entry and in situ localization in polarized bronchial epithelia; type: cell-based, human
# Description: Viral binding/entry assays and in situ localization of viral particles. To assess the binding of rAAV to polarized bronchial epithelia cells, S^35-labeled AV.GFP3ori was applied to either the apical or basal surface (MOI=50,000 particles/cell), followed by incubation at 4° C. for 60 minutes. Combined binding/entry of rAAV into differentiated airway epithelia was measured under the same conditions, except that the cultures were incubated at 37° C. for an additional 2-24 hours before they were harvested. These combined viral binding/entry assays were performed under identical infection conditions to those used for functional studies of rAAV transduction with transgene expression as an endpoint. After washing three times in PBS, cells were lysed in situ by the addition of 5 ml of liquid scintillation cocktail at room temperature for 5 minutes, and the radioactivity was quantitated in a scintillation counter.
# To analyze the subcellular localization of the rAAV particles within polarized human bronchial epithelial cells, infection was performed by applying S^35 labeled virus (MOI=50,000 particles/cell) to either the mucosal or serosal surface. At 2 hours post-infection, transwells were washed with medium three times and fixed in 4% paraformaldehyde overnight prior to cryoprotection and embedding for frozen sectioning. 10 μm frozen sections were overlaid with photoemulsion and developed for 5 weeks according to a previously published protocol (Duan et al., 1998).
molecule,measurement,setting,value
"CC(C)C[C@@H](C=O)NC(=O)[C@H](CC(C)C)NC(=O)[C@H](CC(C)C)NC(=O)OCc1ccccc1 [Z-LLL, N-carbobenzoxyl-L-leucinyl-L-leucinyl-L-leucinal] (Cbz-Leu-Leu-Leu-aldehyde)",induction of whole lung luciferase expression,mouse lung; 14 days (2 weeks) post-infection,17.2 fold
same,induction of whole lung luciferase expression,mouse lung; 42 days (6 weeks) post-infection,2.1 fold
COc1cccc2c1C(=O)c1c(O)c3c(c(O)c1C2=O)C[C@@](O)(C(=O)CO)C[C@@H]3O[C@H]1C[C@H](N)[C@H](O)[C@H](C)O1 [doxorubicin],inhibition of ENaC Isc by the single compound,ENaC,equivalent inhibition of ENaC Isc as seen with combined Dox/LLnL
N-acetyl-L-leucinyl-L-leucinal-L-norleucinal [LLnL],rAAV binding,[1]; 4° C.,no significant effect
same,uptake of S^35 labeled rAAV,[1]; 2 hour infection period at 37° C.,not altered
same,intracellular distribution of radiolabeled rAAV particles,"[1]; 2 hours post-infection, photoemulsion overlay",significant shift to nuclear associated grains
same,intracellular radioactivity,[1]; 24 hours post-infection,very significant decrease
